Reference: patent publication US9023789B2, “Amylin analogs and pharmaceutical compositions thereof” (Novo Nordisk A/S, priority 2012, dated 2015)
Numbered stars: 1 amine (or outer) side, 2 acyl side, 3 side chain; on linkers, the order of the positions; unused ones are H or OH. Bridge positions count the residues as written; N and C are the ends. Side chains are listed from the residue outwards. Peptide text beside a SMILES is read from it. * marks the point of attachment. C20 diacid = O=C(O)CCCCCCCCCCCCCCCCCCC(=O)*; γGlu = O=C(O)[C@H](CCC(=O)[*:2])N[*:1]; AEEA = NCCOCCOCC(=O)O

Tests used:
[1] = target: T1, human amylin receptor (membranes from Amylin 3(a)/CRE-luc cells) (Homo sapiens, UniProt O60896+P30988); assay: ASSAY (V) binding to the human amylin receptor (SPA, 125I-rat amylin); conditions: for IC50: Table 4, read-out: hAmylin-R bind IC50;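 on all read-outs here: competition binding of cell membranes (35 ng/µL) mixed with SPA beads in 384-well plates at 40 µL total volume, read by scintillation counting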
T1 construct: expressed in transfected cells
T1 sequence (P30988 25-474): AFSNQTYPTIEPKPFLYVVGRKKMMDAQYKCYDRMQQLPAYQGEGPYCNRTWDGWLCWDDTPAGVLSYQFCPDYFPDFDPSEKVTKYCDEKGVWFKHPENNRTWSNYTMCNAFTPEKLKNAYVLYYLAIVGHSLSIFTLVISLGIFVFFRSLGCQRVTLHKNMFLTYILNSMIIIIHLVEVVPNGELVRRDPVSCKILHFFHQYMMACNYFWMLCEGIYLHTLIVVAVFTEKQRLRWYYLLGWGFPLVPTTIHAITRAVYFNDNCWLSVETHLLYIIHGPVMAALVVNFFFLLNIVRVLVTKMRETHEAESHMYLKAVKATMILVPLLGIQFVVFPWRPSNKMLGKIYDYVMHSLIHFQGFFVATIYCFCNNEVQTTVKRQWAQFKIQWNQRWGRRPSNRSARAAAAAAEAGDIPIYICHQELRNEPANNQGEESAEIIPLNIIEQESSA
T1 sequence (O60896 24-148 partner): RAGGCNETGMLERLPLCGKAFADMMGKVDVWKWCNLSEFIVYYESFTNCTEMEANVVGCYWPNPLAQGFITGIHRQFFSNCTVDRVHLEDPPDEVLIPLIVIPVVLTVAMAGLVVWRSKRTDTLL

[2] = target: T2, human amylin 3(a) receptor (human calcitonin receptor + RAMP-3) in BHK570 cells (Homo sapiens, UniProt O60896+P30988); assay: ASSAY (II)a functional assay, human amylin receptor (CRE luciferase); assay type: cell-based; conditions: for EC50: human amylin receptor functional potency, assay (II), read-out: hAmylin-R funct. EC50
T2 construct: expressed in transfected cells
Procedure, shortened: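 Readout is luminescence from a cAMP-responsive CRE-luc reporter, developed with LucLite for 30 min at room temperature. Cells were treated for 3 h at 37 °C in 10% FBS/DMEM buffered with 10 mM Hepes (pH 7.4).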

[3] = target: T3, rat calcitonin receptor (Rattus norvegicus, UniProt P32214); assay: ASSAY (VIII) binding to the rat calcitonin receptor; conditions: Table 7, read-out: rCTR bind IC50
T3 construct: expressed in transfected cells; host or cells: BHK tk'ts 13 (transient, FuGENE 6), membranes
T3 sequence (P32214 25-479 isoform P32214-2 limits assumed): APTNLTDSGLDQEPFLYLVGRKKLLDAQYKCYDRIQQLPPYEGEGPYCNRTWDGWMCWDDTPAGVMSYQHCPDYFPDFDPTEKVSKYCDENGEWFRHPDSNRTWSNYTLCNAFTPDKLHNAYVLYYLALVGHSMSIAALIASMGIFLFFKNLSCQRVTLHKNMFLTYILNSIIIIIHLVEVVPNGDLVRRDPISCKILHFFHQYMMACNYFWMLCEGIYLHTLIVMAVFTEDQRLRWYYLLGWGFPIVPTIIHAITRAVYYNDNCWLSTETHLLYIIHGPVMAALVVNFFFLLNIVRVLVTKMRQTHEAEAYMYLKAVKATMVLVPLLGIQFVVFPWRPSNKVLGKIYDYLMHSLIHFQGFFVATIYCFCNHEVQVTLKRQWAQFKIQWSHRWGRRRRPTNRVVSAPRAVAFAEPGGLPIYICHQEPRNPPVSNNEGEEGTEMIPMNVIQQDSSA
Procedure, shortened: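 Receptor source: membranes from transiently transfected BHK tk′ts 13 cells expressing rat calcitonin receptor, collected roughly 48 hours after transfection.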

[4] = Table 5, selectivity, hCTR bind IC50 / hAmylin-R bind IC50
[5] = Table 5a, selectivity, hCTR bind IC50 / hAmylin-R bind IC50
[6] = Table 5b, selectivity, hCTR bind IC50 / hAmylin-R bind IC50
[7] = Table 5c, selectivity, hCTR bind IC50 / hAmylin-R bind IC50
[8] = Table 7, human binding selectivity, included for comparison
[9] = Table 7a (preferred compounds), human binding selectivity, included for comparison
[10] = ratio of human calcitonin receptor binding IC50 to human amylin receptor binding IC50
[11] = hCTR funct. EC50 divided by hAmylin-R funct. EC50
[12] = hCTR funct. EC50 over hAmylin-R funct. EC50
[13] = human functional selectivity: hCTR funct. EC50 / hAmylin-R funct. EC50

Compound | IC50 [1] [nM] | Ratio hCT/hAmylin binding [1, 4] | Ratio hCT/hAmylin binding [1, 5] | Ratio hCT/hAmylin binding [1, 6] | Ratio hCT/hAmylin binding [1, 7] | Ratio hCT/hAmylin binding [1, 8] | Ratio hCT/hAmylin binding [1, 9] | Ratio hCT/hAmylin binding [1, 10] | Ratio hCT/hAmylin funct. [2, 11] | Ratio hCT/hAmylin funct. [2, 12] | EC50 [2] [nM] | Ratio hCT/hAmylin funct. [2, 13] | IC50 [3] [nM] | Ratio hCT/hAmylin funct. ([2]; hCTR funct. EC50 / hAmylin-R funct. EC50)
CC[C@H](C)[C@H](NC(=O)[C@H](C)NC(=O)CNC(=O)[C@H](Cc1ccccc1)NC(=O)[C@H](CC(N)=O)NC(=O)[C@@H]1CCCN1C(=O)[C@H](CO)NC(=O)[C@H](CO)NC(=O)[C@H](Cc1c[nH]cn1)NC(=O)[C@H](CCCNC(=N)N)NC(=O)[C@H](CC(C)C)NC(=O)[C@H](Cc1ccccc1)NC(=O)[C@H](CCCNC(=N)N)NC(=O)[C@H](C)NC(=O)[C@H](CC(C)C)NC(=O)[C@H](CCCNC(=N)N)NC(=O)[C@H](CCC(N)=O)NC(=O)[C@@H](NC(=O)[C@H](C)NC(=O)[C@@H]1CSSC[C@H](NC(=O)[C@@H](N)CCCCNC(=O)CC[C@H](NC(=O)CCCCCCCCCCCCCCCCCCC(=O)O)C(=O)O)C(=O)N[C@@H](CC(N)=O)C(=O)N[C@@H]([C@@H](C)O)C(=O)N[C@@H](C)C(=O)N[C@@H]([C@@H](C)O)C(=O)N1)[C@@H](C)O)C(=O)N1CCC[C@H]1C(=O)N[C@@H](CO)C(=O)N[C@@H](CO)C(=O)N[C@H](C(=O)N[C@@H](CC(N)=O)C(=O)N[C@H](C(=O)NCC(=O)N1CCC[C@H]1C(=O)N[C@@H](CC(N)=O)C(=O)N[C@H](C(=O)N[C@@H](Cc1ccc(O)cc1)C(N)=O)[C@@H](C)O)C(C)C)[C@@H](C)O [Example 65] (H-K([γGlu-C20 diacid])CNTATCATQRLARFLRHSSPNFGAIPSSTNVGPNTY-NH2; disulfide 2-7 (inferred); N-terminus assumed) | 0.649 | 82.4 | 82.4 | 82.4 | 82.4 | 82.4 | 82.4 | 82.4 | 38.6 | 38.6 | 0.242 | 38.6 | 108 | 
CC[C@H](C)[C@H](NC(=O)[C@H](C)NC(=O)CNC(=O)[C@H](Cc1ccccc1)NC(=O)[C@H](CC(N)=O)NC(=O)[C@@H]1CCCN1C(=O)[C@H](CO)NC(=O)[C@H](CO)NC(=O)[C@H](Cc1c[nH]cn1)NC(=O)[C@H](CCCNC(=N)N)NC(=O)[C@H](CC(C)C)NC(=O)[C@H](Cc1ccccc1)NC(=O)[C@H](CC(N)=O)NC(=O)[C@H](C)NC(=O)[C@H](CC(C)C)NC(=O)[C@H](CCCNC(=N)N)NC(=O)[C@H](CCC(N)=O)NC(=O)[C@@H](NC(=O)[C@H](C)NC(=O)[C@@H]1CSSC[C@H](NC(=O)[C@@H](N)CCCCNC(=O)COCCOCCNC(=O)COCCOCCNC(=O)CC[C@H](NC(=O)CCCCCCCCCCCCCCCCCCC(=O)O)C(=O)O)C(=O)N[C@@H](CC(N)=O)C(=O)N[C@@H]([C@@H](C)O)C(=O)N[C@@H](C)C(=O)N[C@@H]([C@@H](C)O)C(=O)N1)[C@@H](C)O)C(=O)N1CCC[C@H]1C(=O)N[C@@H](CO)C(=O)N[C@@H](CO)C(=O)N[C@H](C(=O)N[C@@H](CC(N)=O)C(=O)N[C@H](C(=O)NCC(=O)N[C@@H](CCCNC(=N)N)C(=O)N[C@@H](CC(N)=O)C(=O)N[C@H](C(=O)N[C@@H](Cc1ccc(O)cc1)C(N)=O)[C@@H](C)O)C(C)C)[C@@H](C)O [Example 95] (H-K([AEEA-AEEA-γGlu-C20 diacid])CNTATCATQRLANFLRHSSPNFGAIPSSTNVGRNTY-NH2; disulfide 2-7 (inferred); N-terminus assumed) | 0.967 | 63.4 | 63.4 | 63.4 | 63.4 | 63.4 | 63.4 | 63.4 | 33.0 | 33.0 | 0.651 | 33.0 | 389 | 
CC[C@H](C)[C@H](NC(=O)[C@H](C)NC(=O)CNC(=O)[C@H](Cc1ccccc1)NC(=O)[C@H](CC(N)=O)NC(=O)[C@@H]1CCCN1C(=O)[C@H](CO)NC(=O)[C@H](CO)NC(=O)[C@H](Cc1c[nH]cn1)NC(=O)[C@H](CCCNC(=N)N)NC(=O)[C@H](CC(C)C)NC(=O)[C@H](Cc1ccccc1)NC(=O)[C@H](CC(=O)O)NC(=O)[C@H](C)NC(=O)[C@H](CC(C)C)NC(=O)[C@H](CCCNC(=N)N)NC(=O)[C@H](CCC(N)=O)NC(=O)[C@@H](NC(=O)[C@H](C)NC(=O)[C@@H]1CSSC[C@H](NC(=O)[C@@H](N)CCCCNC(=O)CC[C@H](NC(=O)CCCCCCCCCCCCCCCCCCC(=O)O)C(=O)O)C(=O)N[C@@H](CC(N)=O)C(=O)N[C@@H]([C@@H](C)O)C(=O)N[C@@H](C)C(=O)N[C@@H]([C@@H](C)O)C(=O)N1)[C@@H](C)O)C(=O)N1CCC[C@H]1C(=O)N[C@@H](CO)C(=O)N[C@@H](CO)C(=O)N[C@H](C(=O)N[C@@H](CC(N)=O)C(=O)N[C@H](C(=O)NCC(=O)N1CCC[C@H]1C(=O)N[C@@H](CCC(=O)O)C(=O)N[C@H](C(=O)N[C@@H](Cc1ccc(O)cc1)C(N)=O)[C@@H](C)O)C(C)C)[C@@H](C)O [Example 123] (H-K([γGlu-C20 diacid])CNTATCATQRLADFLRHSSPNFGAIPSSTNVGPETY-NH2; disulfide 2-7; N-terminus assumed) | 0.196 | 16.7 | 16.7 | 16.7 |  | 16.7 | 16.7 | 16.7 | 3.9 | 3.9 | 0.288 | 3.9 | 18.6 | 3.9
